Results reported in paper PMC9481151, “Discovery of new symmetrical and asymmetrical nitrile-containing 1,4-dihydropyridine derivatives as dual kinases and P-glycoprotein inhibitors: synthesis, in vitro assays, and in silico studies” (Journal of Enzyme Inhibition and Medicinal Chemistry, 2022).

Tests used:
[1] = system: RXF 393; experiment: NCI single dose (10 µM) SRB screen; assay type: cell-based, human; details: renal cancer, 48 h
[2] = system: ACHN; experiment: NCI single dose (10 µM) SRB screen; assay type: cell-based, human; details: renal cancer, 48 h
[3] = system: SNB-19; experiment: NCI single dose (10 µM) SRB screen; assay type: cell-based, human; details: CNS cancer, 48 h
[4] = system: NCI 60 cancer cell lines; experiment: NCI single dose (10 µM) SRB screen, mean over panel; assay type: cell-based, human; details: mean over 60 cell lines, 48 h
[5] = system: MOLT-4; experiment: NCI single dose (10 µM) SRB screen; assay type: cell-based, human; details: leukaemia, 48 h
[6] = system: OVCAR-4; experiment: NCI single dose (10 µM) SRB screen; assay type: cell-based, human; details: ovarian cancer, 48 h
[7] = system: OVCAR-8; experiment: NCI single dose (10 µM) SRB screen; assay type: cell-based, human; details: ovarian cancer, 48 h
[8] = system: KM12; experiment: NCI single dose (10 µM) SRB screen; assay type: cell-based, human; details: colon cancer, 48 h
[9] = system: OVCAR-3; experiment: NCI single dose (10 µM) SRB screen; assay type: cell-based, human; details: ovarian cancer, 48 h
[10] = system: Pseudomonas aeruginosa; experiment: Agar well diffusion method; details: relative to ciprofloxacin
[11] = system: HCC-2998; experiment: NCI single dose (10 µM) SRB screen; assay type: cell-based, human; details: colon cancer, 48 h
[12] = system: Escherichia coli; experiment: Agar well diffusion method; details: relative to ciprofloxacin
[13] = system: UO-31; experiment: NCI single dose (10 µM) SRB screen; assay type: cell-based, human; details: renal cancer, 48 h
[14] = system: Staphylococcus aureus; experiment: Agar well diffusion method; details: relative to ciprofloxacin
[15] = system: SF-539; experiment: NCI single dose (10 µM) SRB screen; assay type: cell-based, human; details: CNS cancer, 48 h
[16] = system: SK-MEL-2; experiment: NCI single dose (10 µM) SRB screen; assay type: cell-based, human; details: melanoma, 48 h
[17] = system: Candida albicans; experiment: Agar well diffusion method; details: relative to clotrimazole
[18] = system: NCI-H322M; experiment: NCI single dose (10 µM) SRB screen; assay type: cell-based; details: non-small cell lung cancer, 48 h
[19] = system: SK-OV-3; experiment: NCI single dose (10 µM) SRB screen; assay type: cell-based, human; details: ovarian cancer, 48 h
[20] = system: MDA-MB-435; experiment: NCI single dose (10 µM) SRB screen; assay type: cell-based, human; details: melanoma, 48 h
[21] = system: HOP-62; experiment: NCI single dose (10 µM) SRB screen; assay type: cell-based, human; details: non-small cell lung cancer, 48 h
[22] = system: SW-620; experiment: NCI single dose (10 µM) SRB screen; assay type: cell-based, human; details: colon cancer, 48 h
[23] = system: SK-MEL-5; experiment: NCI single dose (10 µM) SRB screen; assay type: cell-based, human; details: melanoma, 48 h
[24] = system: HCT-116; experiment: NCI single dose (10 µM) SRB screen; assay type: cell-based, human; details: colon cancer, 48 h
[25] = system: NCI-H522; experiment: NCI single dose (10 µM) SRB screen; assay type: cell-based, human; details: non-small cell lung cancer, 48 h
[26] = system: HOP-92; experiment: NCI single dose (10 µM) SRB screen; assay type: cell-based, human; details: non-small cell lung cancer, 48 h
[27] = system: HS578T; experiment: NCI single dose (10 µM) SRB screen; assay type: cell-based, human; details: breast cancer, 48 h
[28] = system: MDA-MB-231; experiment: NCI single dose (10 µM) SRB screen; assay type: cell-based, human; details: breast cancer, 48 h
[29] = system: A498; experiment: NCI single dose (10 µM) SRB screen; assay type: cell-based, human; details: renal cancer, 48 h
[30] = system: DU-145; experiment: NCI single dose (10 µM) SRB screen; assay type: cell-based, human; details: prostate cancer, 48 h
[31] = system: SNB-75; experiment: NCI single dose (10 µM) SRB screen; assay type: cell-based, human; details: CNS cancer, 48 h
[32] = system: SR; experiment: NCI single dose (10 µM) SRB screen; assay type: cell-based, human; details: leukaemia, 48 h
[33] = system: SF-295; experiment: NCI single dose (10 µM) SRB screen; assay type: cell-based, human; details: CNS cancer, 48 h
[34] = system: IGROV1; experiment: NCI single dose (10 µM) SRB screen; assay type: cell-based, human; details: ovarian cancer, 48 h
[35] = system: COLO 205; experiment: NCI single dose (10 µM) SRB screen; assay type: cell-based, human; details: colon cancer, 48 h
[36] = system: NCI-H226; experiment: NCI single dose (10 µM) SRB screen; assay type: cell-based, human; details: non-small cell lung cancer, 48 h
[37] = system: Aspergillus flavus; experiment: Agar well diffusion method; details: relative to clotrimazole
[38] = system: SN12C; experiment: NCI single dose (10 µM) SRB screen; assay type: cell-based, human; details: renal cancer, 48 h
[39] = system: A549/ATCC; experiment: NCI single dose (10 µM) SRB screen; assay type: cell-based, human; details: non-small cell lung cancer, 48 h
[40] = system: RPMI-8226; experiment: NCI single dose (10 µM) SRB screen; assay type: cell-based, human; details: leukaemia, 48 h
[41] = system: M14; experiment: NCI single dose (10 µM) SRB screen; assay type: cell-based, human; details: melanoma, 48 h
[42] = system: SK-MEL-28; experiment: NCI single dose (10 µM) SRB screen; assay type: cell-based, human; details: melanoma, 48 h
[43] = system: MALME-3M; experiment: NCI single dose (10 µM) SRB screen; assay type: cell-based, human; details: melanoma, 48 h
[44] = system: UACC-257; experiment: NCI single dose (10 µM) SRB screen; assay type: cell-based, human; details: melanoma, 48 h
[45] = system: 786-0; experiment: NCI single dose (10 µM) SRB screen; assay type: cell-based, human; details: renal cancer, 48 h
[46] = system: NCI-H460; experiment: NCI single dose (10 µM) SRB screen; assay type: cell-based, human; details: non-small cell lung cancer, 48 h
[47] = system: NCI/ADR-RES; experiment: NCI single dose (10 µM) SRB screen; assay type: cell-based, human; details: ovarian cancer, 48 h
[48] = system: MDA-MB-468; experiment: NCI single dose (10 µM) SRB screen; assay type: cell-based, human; details: breast cancer, 48 h
[49] = system: CAKI-1; experiment: NCI single dose (10 µM) SRB screen; assay type: cell-based, human; details: renal cancer, 48 h
[50] = system: PC-3; experiment: NCI single dose (10 µM) SRB screen; assay type: cell-based, human; details: prostate cancer, 48 h
[51] = system: HCT-15; experiment: NCI single dose (10 µM) SRB screen; assay type: cell-based, human; details: colon cancer, 48 h
[52] = system: CCRF-CEM; experiment: NCI single dose (10 µM) SRB screen; assay type: cell-based, human; details: leukaemia, 48 h
[53] = system: K-562; experiment: NCI single dose (10 µM) SRB screen; assay type: cell-based, human; details: leukaemia, 48 h
[54] = system: HT29; experiment: NCI single dose (10 µM) SRB screen; assay type: cell-based, human; details: colon cancer, 48 h
[55] = system: SF-268; experiment: NCI single dose (10 µM) SRB screen; assay type: cell-based, human; details: CNS cancer, 48 h
[56] = system: MCF7; experiment: NCI single dose (10 µM) SRB screen; assay type: cell-based, human; details: breast cancer, 48 h
[57] = system: NCI-H23; experiment: NCI single dose (10 µM) SRB screen; assay type: cell-based, human; details: non-small cell lung cancer, 48 h
[58] = system: EKVX; experiment: NCI single dose (10 µM) SRB screen; assay type: cell-based, human; details: non-small cell lung cancer, 48 h
[59] = system: BT-549; experiment: NCI single dose (10 µM) SRB screen; assay type: cell-based, human; details: breast cancer, 48 h
[60] = system: T-47D; experiment: NCI single dose (10 µM) SRB screen; assay type: cell-based, human; details: breast cancer, 48 h
[61] = system: LOX IMVI; experiment: NCI single dose (10 µM) SRB screen; assay type: cell-based, human; details: melanoma, 48 h
[62] = system: HL-60(TB); experiment: NCI single dose (10 µM) SRB screen; assay type: cell-based, human; details: leukaemia, 48 h
[63] = system: UACC-62; experiment: NCI single dose (10 µM) SRB screen; assay type: cell-based, human; details: melanoma, 48 h
[64] = system: TK-10; experiment: NCI single dose (10 µM) SRB screen; assay type: cell-based, human; details: renal cancer, 48 h
[65] = system: Bacillus subtilis; experiment: Agar well diffusion method; details: relative to ciprofloxacin
[66] = system: U251; experiment: NCI single dose (10 µM) SRB screen; assay type: cell-based, human; details: CNS cancer, 48 h
[67] = system: OVCAR-5; experiment: NCI single dose (10 µM) SRB screen; assay type: cell-based, human; details: ovarian cancer, 48 h

- melting point: 146 to 148 °C
SMILES: CC1=C(C(=O)OCC(C)C)C(c2cccc(C#N)c2)C(C(=O)OCC(C)C)=C(C)N1 [Compound 1d, Diisobutyl 4-(3-cyanophenyl)-2,6-dimethyl-1,4-dihydropyridine-3,5-dicarboxylate]
- GI% RXF 393 [1]: 42%
- GI% ACHN [2]: 16%
- GI% SNB-19 [3]: – (Only GI% ≥ 10 are shown)
- Mean GI% [4]: 19%
- GI% MOLT-4 [5]: 57%
- GI% OVCAR-4 [6]: 16%
- GI% OVCAR-8 [7]: 11%
- GI% KM12 [8]: 24%
- GI% OVCAR-3 [9]: 10%
- % activity index, P. aeruginosa [10]: – (Values below 25 are of limited value and not shown as they refer either to inactive or non-diffusing compounds)
- GI% HCC-2998 [11]: – (Only GI% ≥ 10 are shown)
- % activity index, E. coli [12]: – (Values below 25 are of limited value and not shown as they refer either to inactive or non-diffusing compounds)
- GI% UO-31 [13]: 20%
- % activity index, S. aureus [14]: – (Values below 25 are of limited value and not shown as they refer either to inactive or non-diffusing compounds)
- GI% SF-539 [15]: 12%
- GI% SK-MEL-2 [16]: 14%
- % activity index, C. albicans [17]: – (Values below 25 are of limited value and not shown as they refer either to inactive or non-diffusing compounds)
- GI% NCI-H322M [18]: – (Only GI% ≥ 10 are shown)
- GI% SK-OV-3 [19]: – (Only GI% ≥ 10 are shown)
- GI% MDA-MB-435 [20]: – (Only GI% ≥ 10 are shown)
- GI% HOP-62 [21]: 12%
- GI% SW-620 [22]: – (Only GI% ≥ 10 are shown)
- GI% SK-MEL-5 [23]: 17%
- GI% HCT-116 [24]: 32%
- GI% NCI-H522 [25]: 21%
- GI% HOP-92 [26]: 37%
- GI% HS578T [27]: 25%
- GI% MDA-MB-231 [28]: 17%
- GI% A498 [29]: 17%
- GI% DU-145 [30]: – (Only GI% ≥ 10 are shown)
- GI% SNB-75 [31]: 32%
- GI% SR [32]: 52%
- GI% SF-295 [33]: 32%
- GI% IGROV1 [34]: – (Only GI% ≥ 10 are shown)
- GI% COLO 205 [35]: – (Only GI% ≥ 10 are shown)
- GI% NCI-H226 [36]: 25%
- % activity index, A. flavus [37]: – (Values below 25 are of limited value and not shown as they refer either to inactive or non-diffusing compounds)
- GI% SN12C [38]: 10%
- GI% A549/ATCC [39]: 25%
- GI% RPMI-8226 [40]: 35%
- GI% M14 [41]: – (Only GI% ≥ 10 are shown)
- GI% SK-MEL-28 [42]: – (Only GI% ≥ 10 are shown)
- GI% MALME-3M [43]: – (Only GI% ≥ 10 are shown)
- GI% UACC-257 [44]: 17%
- GI% 786-0 [45]: 18%
- GI% NCI-H460 [46]: 13%
- GI% NCI/ADR-RES [47]: 20%
- GI% MDA-MB-468 [48]: 30%
- GI% CAKI-1 [49]: 38%
- GI% PC-3 [50]: 57%
- GI% HCT-15 [51]: 31%
- GI% CCRF-CEM [52]: 32%
- GI% K-562 [53]: 44%
- GI% HT29 [54]: 12%
- GI% SF-268 [55]: 25%
- GI% MCF7 [56]: 39%
- GI% NCI-H23 [57]: 14%
- GI% EKVX [58]: 27%
- GI% BT-549 [59]: – (Only GI% ≥ 10 are shown)
- GI% T-47D [60]: 54%
- GI% LOX IMVI [61]: 10%
- GI% HL-60(TB) [62]: 30%
- GI% UACC-62 [63]: 23%
- GI% TK-10 [64]: – (Only GI% ≥ 10 are shown)
- % activity index, B. subtilis [65]: – (Values below 25 are of limited value and not shown as they refer either to inactive or non-diffusing compounds)
- GI% U251 [66]: 21%
- GI% OVCAR-5 [67]: – (Only GI% ≥ 10 are shown)
